Laboratory results published in the supplement of paper PMC4858399.

Assays:
[1] = tested on: Caenorhabditis elegans N2; assay: mean nematode size ln(EXT) after 48 h, plate-adjusted (DMSO control set to 6) (ln(EXT), control-adjusted); higher = larger nematodes / less growth inhibition; settings: exposure time 48 h
In short: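 A growth model removed debris from Biosort extinction readings taken on each worm. These worms were synchronised C. elegans N2 L1 larvae, 50 per well in 4–6 wells per treatment, grown for 48 h at 20°C in K-medium with killed OP50, 1% DMSO and 0.5–200 µM chemical. Readings were natural-logged and averaged by well to give mean size. On each plate, the vehicle control mean was subtracted and 6 was added.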

[2] = tested on: Caenorhabditis elegans N2; assay: lowest effective concentration for larval growth inhibition (size below effect threshold); higher = less potent; settings: exposure time 48 h
In short: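 C. elegans N2 L1 larvae (50 per 96-well) were grown 48 h at 20°C in K-medium with killed bacteria, 1% DMSO and 0.5, 1, 5, 10, 50, 100 or 200 µM chemical. The Biosort measured per-worm extinction as size, and these were log-transformed into well means. The lowest effective concentration is the first dose where the plate-adjusted mean size drops under the 5.665 threshold and stays under it at higher doses.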

SMILES	mean nematode size ln(EXT) (ln) ([1]; 0.5 µM)	mean nematode size ln(EXT) (ln) ([1]; 1 µM)	mean nematode size ln(EXT) (ln) ([1]; 5 µM)	mean nematode size ln(EXT) (ln) ([1]; 10 µM)	mean nematode size ln(EXT) (ln) ([1]; 50 µM)	mean nematode size ln(EXT) (ln) ([1]; 100 µM)	mean nematode size ln(EXT) (ln) ([1]; 200 µM)	lowest effective concentration [2] [µM]
CCCCCCCCCCCCCCC [Pentadecane]	5.88	5.95	5.94	6.03	5.95	5.87	5.74	> 200
C/C=C/C=C/C(=O)O [Sorbic acid]	5.84	5.83	5.82	5.95	5.89	5.86	5.7	> 200
O=NO [Sodium nitrite]	6	6.02	6.05	6.03	6.08	6.04	5.75	> 200
CN(C)CCCN(C)CCCN(C)C	5.82	5.85	5.88	5.85	5.81	5.89	5.96	> 200
Cc1cc(C)cc(C)c1 [1,3,5-Trimethylbenzene]	5.85	5.84	5.83	5.9	5.89	5.99	5.72	> 200
C[C@]12C=CC(=O)C=C1CC[C@H]1[C@@H]3C[C@@H](O)[C@](O)(C(=O)CO)[C@@]3(C)C[C@H](O)[C@@]12F [Triamcinolone]	5.9	5.86	5.87	5.87	5.92	5.86	5.79	> 200
CC(C)CC(C)(O)C#CC(C)(O)CC(C)C (racemic)	5.77	5.77	5.78	5.78	5.64	5.75	5.81	> 200
CC(=O)OCCOCCOCCOC(C)=O [Triethylene Glycol Diacetate]	5.82	5.87	5.88	5.91	5.83	5.96	5.82	> 200
COCC(C)N(C(=O)CCl)c1c(C)csc1C (stereo not drawn) [Dimethenamid]	6.08	5.91	6.17	6.03	5.87	6.56	5.99	> 200
c1ccc(OP(Oc2ccccc2)Oc2ccccc2)cc1 [Triphenyl phosphite]	5.86	5.75	5.77	5.81	5.75	5.95	5.72	> 200
Cc1ccccc1N [2-Methylbenzenamine]	5.79	5.87	5.76	5.89	5.91	5.73	5.89	> 200
CN1CCCC1=O [N-Methyl-2-pyrrolidone]	5.94	5.92	5.89	5.81	5.8	5.89	5.84	> 200
CCCCN(CCCC)CCCC [Tributylamine]	5.91	6	5.98	6.1	5.96	5.92	5.8	> 200
CC1(C)C(C=C(Cl)Cl)C1C(=O)OC(C#N)c1ccc(F)c(Oc2ccccc2)c1 (stereo not drawn) [Cyfluthrin]	6.09	6.69	6.12	6.22	6.18	6.44	5.7	> 200
OCCOc1ccccc1 [Phenoxyethanol]	5.77	5.98	6.04	6.07	6.15	5.99	5.97	> 200
CCc1cccc(CC)c1N [2,6-Diethylaniline]	5.78	5.83	5.81	5.8	5.82	5.84	5.68	> 200
CN(C)C(=S)[S-].CN(C)C(=S)[S-].[Zn+2] [Ziram]	5.98	5.89	5.78	5.83	5.84	5.75	5.77	> 200
NC(=O)NO [Hydroxyurea]	6	5.97	5.92	5.93	5.75	5.63	5.73	> 200
Cc1nc(C)nc(N2C[C@@H](C)N(c3ccnc([C@@H](C)O)n3)[C@@H](C)C2)n1	5.83	5.77	5.75	5.69	5.71	5.7	5.85	> 200

SMILES	mean nematode size ln(EXT) (ln) ([1]; 0.5 µM)	mean nematode size ln(EXT) (ln) ([1]; 1 µM)	mean nematode size ln(EXT) (ln) ([1]; 5 µM)	mean nematode size ln(EXT) (ln) ([1]; 10 µM)	mean nematode size ln(EXT) (ln) ([1]; 50 µM)	mean nematode size ln(EXT) (ln) ([1]; 100 µM)	mean nematode size ln(EXT) (ln) ([1]; 200 µM)	lowest effective concentration [2] [µM]
OB(O)O [Boric acid]	6.06	6.07	6.08	6.13	6.14	6.18	5.95	> 200
CCOCN(C(=O)CCl)c1c(C)cccc1CC [Acetochlor]	6.04	6	6.11	6.25	6.04	6.05	6.15	> 200
CCCCC(CC)C(=O)O (stereo not drawn) [2-Ethylhexanoic acid]	5.7	5.88	5.79	5.81	5.76	5.7	6.12	> 200
CNC(=O)Oc1ccccc1OC(C)C [Propoxur]	6.04	5.9	6.09	6.03	5.83	6.46	5.8	> 200
Clc1ccccc1Cl [1,2-Dichlorobenzene]	5.95	5.9	5.9	6	6.02	6.04	5.68	> 200
CC(C)C(=O)OCC(C)(C)C(OC(=O)C(C)C)C(C)C (stereo not drawn) [2,2,4-Trimethyl-1,3-pentanediol diisobutyrate]	5.99	6.03	5.99	5.9	5.99	5.94	5.68	> 200
COP(=O)(NC(C)=O)SC (stereo not drawn) [Acephate]	5.69	5.74	5.76	5.69	5.85	5.77	5.99	> 200
Cc1ccc(N)c(N)c1 [3,4-Diaminotoluene]	5.97	5.93	5.94	5.91	5.88	5.71	5.75	> 200
OCC(CO)n1cnc(-c2ccc(F)cc2)c1-c1ccnc(Oc2ccccc2)n1	6.02	5.98	5.97	6.03	6.04	5.98	5.82	> 200
CSc1nnc(C(C)(C)C)c(=O)n1N [Metribuzin]	5.83	5.88	5.91	5.85	5.84	5.87	5.78	> 200
Cc1cccc(N)c1 [3-Methylaniline]	5.82	5.86	5.86	5.88	5.91	5.99	5.79	> 200
O=c1n(Cl)c(=O)n(Cl)c(=O)n1Cl [Symclosene]	5.9	5.76	5.62	5.82	5.73	5.69	5.74	> 200
O=C(O)COc1ccc(Cl)cc1Cl [2,4-Dichlorophenoxyacetic acid (2,4-D)]	5.91	5.88	5.96	5.97	5.83	6.02	5.89	> 200
N#CCCCCC#N [Hexanedinitrile]	5.89	5.82	5.87	5.81	5.96	5.75	5.8	> 200
C[C@H](O)CCO [1,3-Butanediol]	5.92	5.9	5.88	6.01	6	6.02	5.74	> 200
CC1=C(C(=O)Nc2ccccc2)SCCO1 [Carboxin]	5.77	5.9	5.83	5.85	5.84	5.62	5.9	> 200
CCCCCCCCO [1-Octanol]	6.08	5.99	6.03	6.07	5.95	5.95	5.81	> 200
CCCCc1ccccc1 [Butylbenzene]	5.65	5.67	5.69	5.67	5.53	5.6	5.75	> 200
CCCN(CCC)N=O [N-Nitrosodipropylamine]	5.88	5.93	5.92	5.84	5.87	5.72	5.97	> 200

SMILES	mean nematode size ln(EXT) (ln) ([1]; 0.5 µM)	mean nematode size ln(EXT) (ln) ([1]; 1 µM)	mean nematode size ln(EXT) (ln) ([1]; 5 µM)	mean nematode size ln(EXT) (ln) ([1]; 10 µM)	mean nematode size ln(EXT) (ln) ([1]; 50 µM)	mean nematode size ln(EXT) (ln) ([1]; 100 µM)	mean nematode size ln(EXT) (ln) ([1]; 200 µM)	lowest effective concentration [2] [µM]
OC[C@H]1O[C@@](CO)(O[C@H]2O[C@H](CO)[C@@H](O)[C@H](O)[C@H]2O)[C@@H](O)[C@@H]1O [Sucrose]	6.01	5.97	6.04	5.98	5.84	5.87	5.82	> 200
CNC(=O)/C=C(\C)OP(=O)(OC)OC [Monocrotophos]	5.81	5.76	5.74	5.78	5.79	5.77	6.07	> 200
CCNc1nc(Cl)nc(NC(C)(C)C#N)n1 [Cyanazine]	5.89	5.95	5.88	6.03	6.26	6.42	5.86	> 200
c1ccc2ncccc2c1 [Quinoline]	5.87	5.87	5.78	5.79	5.78	5.81	5.73	> 200
O=S(=O)(O)C(F)(F)C(F)(F)C(F)(F)C(F)(F)F [Potassium nonafluoro-1-butanesulfonate]	5.49	5.58	5.55	5.7	5.7	5.65	5.81	> 200
CC(C)(O)c1ccc(CNC(=O)c2cccnc2Oc2ccc(F)cc2)cc1	5.74	6.01	5.84	5.9	5.91	5.9	5.72	> 200
COCc1cnc(C2=NC(C)(C(C)C)C(=O)N2)c(C(=O)O)c1 (stereo not drawn) [Imazamox]	5.93	5.93	5.91	5.96	6	6.01	5.83	> 200
ClC(Cl)c1ccccc1 [Benzal chloride]	5.81	5.83	5.86	5.78	5.85	5.89	5.68	> 200
CCCCCCCCC(=O)O [Nonanoic acid]	5.86	5.94	5.94	5.91	5.89	5.93	5.83	> 200
N#Cc1cc(Br)c(O)c(Br)c1 [Bromoxynil]	5.85	5.95	5.86	5.91	5.84	5.95	5.67	> 200
C/C(=N\C#N)N(C)Cc1ccc(Cl)nc1 [Acetamiprid]	5.78	5.98	6.03	6.03	6.16	6.02	5.96	> 200
c1ccc(C2CO2)cc1 (stereo not drawn) [Styrene oxide]	6.05	6.04	6.03	6.01	6.03	6.03	5.89	> 200
C/C=C\c1ccc(O)c(OC)c1 [Isoeugenol]	5.87	5.92	5.95	6.01	5.87	5.85	5.88	> 200
Cn1c(-c2ccccc2)cc(-c2ccccc2)[n+]1C [Difenzoquat metilsulfate]	6.06	6.04	6.06	6.07	5.99	6.1	5.9	> 200
c1cc(-c2ccncc2)ccn1 [4,4'-bipyridine]	5.97	5.91	5.89	5.94	5.95	6.01	5.85	> 200
Cc1ccc(C)c(C)c1 [1,2,4-Trimethylbenzene]	5.8	5.84	5.88	5.84	5.91	5.89	5.71	> 200
CCCCCCCCCCCCCCCCCC(=O)O [Stearic acid]	6.02	5.96	6.03	5.96	5.87	5.85	5.91	> 200
CCCCOC(=O)c1ccccc1C(=O)O [Monobutyl phthalate]	6.02	5.99	6.01	5.99	5.97	5.95	5.97	> 200
